The record followed here is patent US8466188B2, “Use of spiro-oxindole compounds as therapeutic agents” (Xenon Pharmaceuticals Inc., priority 2006, dated 2013).

A value given as a limit tells only on which side of the number the result lay.

Broadly, the melting point is the temperature of the solid-liquid transition.

Regarding `O=C(CN1C(=O)C2(COc3cc4c(cc32)CCO4)c2cc(Cl)ccc21)Nc1ccccc1F` (stereo not drawn) [Example 3.7, 2-(5′-chloro-2′-oxo-5,6-dihydrospiro[benzo[1,2-b:5,4-b′]difuran-3,3′-indol]-1′(2′H)-yl)-N-(2-fluorophenyl)acetamide], the melting point is 229 to 230 °C.
`O=C(CN1C(=O)C2(COc3cc(Cl)ccc32)c2ccccc21)Nc1ccccc1F` (stereo not drawn) [Example 3.8, 2-(6-chloro-2′-oxospiro[1-benzofuran-3,3′-indol]-1′(2′H)-yl)-N-(2-fluorophenyl)acetamide] returned a melting point of 70 to 75 °C.
As for `O=C(CN1C(=O)C2(COc3cc(F)c(F)cc32)c2ccccc21)Nc1ccccc1F` (stereo not drawn) [Example 3.9, 2-(5,6-difluoro-2′-oxospiro[1-benzofuran-3,3′-indol]-1′(2′H)-yl)-N-(2-fluorophenyl)acetamide], the figure is 97 to 100 °C; as for `O=C(CN1C(=O)C2(COc3ccc(Br)cc32)c2ccccc21)Nc1ccccc1F` (stereo not drawn) [Example 3.10, 2-(5-bromo-2′-oxospiro[1-benzofuran-3,3′-indol]-1′(2′H)-yl)-N-(2-fluorophenyl)acetamide], 100 to 103 °C.
Take `O=C(CN1C(=O)C2(COc3cc4c(cc32)CCO4)c2c(Br)cccc21)Nc1ccccc1F` (stereo not drawn) [Example 3.12, 2-(4′-bromo-2′-oxo-5,6-dihydrospiro[benzo[1,2-b:5,4-b′]difuran-3,3′-indol]-1′(2′H)-yl)-N-(2-fluorophenyl)acetamide]: the melting point fell in the range of 245 to 246 °C.
In turn, `O=C(CN1C(=O)C2(COc3cc4c(cc32)CCO4)c2ccccc21)Nc1ccccc1F` (stereo not drawn) [Example 3.13, N-(2-fluorophenyl)-2-(2′-oxo-5,6-dihydrospiro[benzo[1,2-b:5,4-b′]difuran-3,3′-indol]-1′(2′H)-yl)acetamide] yielded a melting point of 210 to 212 °C.
Molecule `Cc1ccc(F)c2c1N(CC(=O)Nc1ccccc1F)C(=O)C21COc2cc3c(cc21)CCO3` (stereo not drawn) [Example 3.14, 2-(4′-fluoro-7′-methyl-2′-oxo-5,6-dihydrospiro[benzo[1,2-b:5,4-b′]difuran-3,3′-indol]-1′(2′H)-yl)-N-(2-fluorophenyl)acetamide] showed a melting point of 250 to 255 °C.
On to `CC1(C)Cc2cc3c(cc2O1)OCC31C(=O)N(CC(=O)Nc2ccccc2F)c2cccc(-c3cncnc3)c21` (stereo not drawn) [Example 4.3, 2-(6,6-dimethyl-2′-oxo-4′-pyrimidin-5-yl-5,6-dihydrospiro[benzo[1,2-b:5,4-b′]difuran-3,3′-indol]-1′(2′H)-yl)-N-(2-fluorophenyl)acetamide], for which the melting point is greater than 250 °C.
The value for `O=C1Nc2cccc(-c3ccoc3)c2C12COc1cc3c(cc12)OCO3` (stereo not drawn) [Example 4.4, 4′-(3-furyl)spiro[furo[2,3-f][1,3]benzodioxole-7,3′-indol]-2′(1′H)-one] was 270 to 272 °C; that for `O=C1Nc2cccc(-c3cccc4c3oc3ccccc34)c2C12COc1cc3c(cc12)OCO3` (stereo not drawn) [Example 4.5, 4′-dibenzo[b,d]furan-4-ylspiro[furo[2,3-f][1,3]benzodioxole-7,3′-indol]-2′(1′H)-one] was greater than 230 °C.
As for `COc1ccc(-c2cccc3c2C2(COc4cc5c(cc42)OCO5)C(=O)N3Cc2ccc(C(F)(F)F)o2)cn1` (stereo not drawn) [Example 4.6, 4′-(6-methoxypyridin-3-yl)-1′-{[5-(trifluoromethyl)-2-furyl]methyl}spiro[furo[2,3-f][1,3]benzodioxole-7,3′-indol]-2′(1′H)-one], the figure is 174 to 176 °C; as for `CN(C)c1ccc(-c2cccc3c2C2(COc4cc5c(cc42)OCO5)C(=O)N3Cc2ccc(C(F)(F)F)o2)cn1` (stereo not drawn) [Example 4.7, 4′-[6-(dimethylamino)pyridin-3-yl]-1′-{[5-(trifluoromethyl)-2-furyl]methyl}spiro[furo[2,3-f][1,3]benzodioxole-7,3′-indol]-2′(1′H)-one], 174 to 176 °C; as for `O=C1Nc2cccc(-c3cncnc3)c2C12COc1cc3c(cc12)OCO3` (stereo not drawn) [Example 4.8, 4′-pyrimidin-5-ylspiro[furo[2,3-f][1,3]benzodioxole-7,3′-indol]-2′(1′H)-one], 185 to 187 °C.
`O=C1N(Cc2ccccn2)c2cccc(-c3ccoc3)c2C12COc1cc3c(cc12)CCO3` (stereo not drawn) [Example 4.9, 4′-(3-furyl)-1′-(pyridin-2-ylmethyl)-5,6-dihydrospiro[benzo[1,2-b:5,4-b′]difuran-3,3′-indol]-2′(1′H)-one] showed a melting point of 195 to 197 °C.
`O=C1N(Cc2ccccn2)c2cccc(-c3cccnc3)c2C12COc1cc3c(cc12)CCO3` (stereo not drawn) [Example 4.11, 4′-pyridin-3-yl-1′-(pyridin-2-ylmethyl)-5,6-dihydrospiro[benzo[1,2-b:5,4-b′]difuran-3,3′-indol]-2′(1′H)-one] showed a melting point greater than 200 °C.
For the molecule `O=C1N(Cc2ccc(C(F)(F)F)o2)c2cccc(-c3ccoc3)c2C12COc1cc3c(cc12)CCO3` (stereo not drawn) [Example 4.12, 4′-(3-furyl)-1′-{[5-(trifluoromethyl)-2-furyl]methyl}-5,6-dihydrospiro[benzo[1,2-b:5,4-b′]difuran-3,3′-indol]-2′(1′H)-one], the melting point is 167 to 169 °C.
The value for `O=C1N(Cc2ccc(C(F)(F)F)o2)c2cccc(-c3cncnc3)c2C12COc1cc3c(cc12)CCO3` (stereo not drawn) [Example 4.14, 4′-pyrimidin-5-yl-1′-{[5-(trifluoromethyl)-2-furyl]methyl}-5,6-dihydrospiro[benzo[1,2-b:5,4-b′]difuran-3,3′-indol]-2′(1′H)-one] was 263 to 266 °C; that for `O=C(CN1C(=O)C2(COc3cc4c(cc32)CCO4)c2c(-c3cncnc3)cccc21)Nc1ccccc1F` (stereo not drawn) [Example 4.20, N-(2-fluorophenyl)-2-(2′-oxo-4′-pyrimidin-5-yl-5,6-dihydrospiro[benzo[1,2-b:5,4-b′]difuran-3,3′-indol]-1′(2′H)-yl)acetamide] was 229 to 230 °C; that for `CC(C)(C)OC(=O)N1CCC(CN2C(=O)C3(COc4cc5c(cc43)C(C)(C)CO5)c3ccccc32)CC1` (stereo not drawn) [Example 10.18, tert-butyl 4-[(5,5-dimethyl-2′-oxo-5,6-dihydrospiro[benzo[1,2-b:5,4-b′]difuran-3,3′-indol]-1′(2′H)-yl)methyl]piperidine-1-carboxylate] was 65 to 75 °C.
`CC1(C)COc2cc3c(cc21)C1(CO3)C(=O)N(Cc2ccc(C(F)(F)F)o2)c2ccccc21` (stereo not drawn) [Example 10.21, 5,5-dimethyl-1′-{[5-(trifluoromethyl)-2-furyl]methyl}-5,6-dihydrospiro[benzo[1,2-b:5,4-b′]difuran-3,3′-indol]-2′(1′H)-one]: the melting point was in the range of 155 to 160 °C.
The molecule `O=C1N(Cc2ccc(F)cc2Cl)c2ccccc2C12COc1cc3c(cc12)OCO3` (stereo not drawn) [Example 10.30, 1′-(2-chloro-4-fluorobenzyl)spiro[furo[2,3-f][1,3]benzodioxole-7,3′-indol]-2′(1′H)-one] returned a melting point of 174 to 175 °C.
In the case of `O=C1N(CCCC2CC2)c2ccccc2C12COc1cc3c(cc12)OCO3` (stereo not drawn) [Example 10.32, 1′-(3-cyclopropylpropyl)spiro[furo[2,3-f][1,3]benzodioxole-7,3′-indol]-2′(1′H)-one], the melting point lay in the range of 111 to 113 °C.
`CCCCN1C(=O)C2(COc3cc4c(cc32)OCO4)c2ccccc21` (stereo not drawn) [Example 10.33, 1′-butylspiro[furo[2,3-f][1,3]benzodioxole-7,3′-indol]-2′(1′H)-one] yielded a melting point of 119 to 120 °C.
For the molecule `Cc1oncc1CN1C(=O)C2(COc3cc4c(cc32)OCO4)c2ccccc21` (stereo not drawn) [Example 10.34, 1′-[(5-methylisoxazol-4-yl)methyl]spiro[furo[2,3-f][1,3]benzodioxole-7,3′indol]-2′(1′H)-one], the melting point was in the range of 159 to 161 °C.
The value for `O=C1N(CC2CCOCC2)c2ccccc2C12COc1cc3c(cc12)OCO3` (stereo not drawn) [Example 10.35, 1′-(tetrahydro-2H-pyran-4-ylmethyl)spiro[furo[2,3-f][1,3]benzodioxole-7,3′-indol]-2′(1′H)-one] was 142 to 144 °C.
The molecule `O=C1N(Cc2ccccc2OC(F)(F)F)c2ccccc2C12COc1cc3c(cc12)OCO3` (stereo not drawn) [Example 10.36, 1′[2-(trifluoromethoxy)benzyl]spiro[furo[2,3-f][1,3]benzodioxole-7,3′-indol]-2′(1′H)-one] returned a melting point of 130 to 135 °C.
As to `O=C1N(Cc2cccc(OC(F)(F)F)c2)c2ccccc2C12COc1cc3c(cc12)OCO3` (stereo not drawn) [Example 10.37, 1′[3-(trifluoromethoxy)benzyl]spiro[furo[2,3-f][1,3]benzodioxole-7,3′-indol]-2′(1′H)-one], the melting point lay in the range of 88 to 91 °C.
The molecule `O=C1N(Cc2ccc(OC(F)(F)F)cc2)c2ccccc2C12COc1cc3c(cc12)OCO3` (stereo not drawn) [Example 10.38, 1′[4-(trifluoromethoxy)benzyl]spiro[furo[2,3-f][1,3]benzodioxole-7,3′-indol]-2′(1′H)-one] had a melting point of 99 to 101 °C.
`CN1C(=O)C2(COc3cc4c(cc32)OCO4)c2ccccc21` (stereo not drawn) [Example 10.39, 1′-methylspiro[furo[2,3-f][1,3]benzodioxole-7,3′-indol]-2′(1′H)-one] yielded a melting point of 142 to 144 °C.
`CCCN1C(=O)C2(COc3cc4c(cc32)OCO4)c2ccccc21` (stereo not drawn) [Example 10.40, 1′-Propylspiro[furo[2,3-f][1,3]benzodioxole-7,3′-indol]-2′(1′H)-one] displayed a melting point of 158 to 160 °C.
Molecule `CC(C)(C)OC(=O)N1CCC(CN2C(=O)C3(COc4cc5c(cc43)CCO5)c3ccccc32)CC1` (stereo not drawn) [Example 10.43, tert-butyl 4-[(2′-oxo-5,6-dihydrospiro[benzo[1,2-b:5,4-b′]difuran-3,3′-indol]-1′(2′H)-yl)methyl]piperidine 1-carboxylate] showed a melting point of 96 to 98 °C.
In turn, `COc1ccc(CN2C(=O)C3(COc4cc5c(cc43)CCO5)c3ccccc32)cc1` (stereo not drawn) [Example 10.46, 1′-(4-methoxybenzyl)-5,6-dihydrospiro[benzo[1,2-b:5,4-b′]difuran-3,3′-indol]-2′(1′H)-one] showed a melting point of 120 to 121 °C.
As to `O=C1N(Cc2ccc(C(F)(F)F)o2)c2cccc(Br)c2C12COc1cc3c(cc12)CCO3` (stereo not drawn) [Example 10.48, 4′-bromo-1′-{[5-(trifluoromethyl)-2-furyl]methyl}-5,6-dihydrospiro[benzo[1,2-b:5,4-b′]difuran-3,3′-indol]-2′(1′H)-one], the melting point is 182 to 184 °C.
